ChEMBL document CHEMBL3244272, “Folate antagonists. 15. 2,3-Diamino-6-(2-naphthylsulfonyl)quinazoline and related 2,4-diamino-6-[(phenyl and naphthyl)sulfinyl and sulfonyl]quinazolines, a potent new class of antimetabolites with phenomenal antimalarial activity” (J Med Chem, 1979)
Values after ≈ are worked out from the molar mass of the structure shown.

Assays:
Plasmodium berghei [1] = test: Antimalarial activity against trophozoite-induced Plasmodium berghei infected in mouse assessed as change in mean survival time at 20 mg/kg, sc single dose after 72 hrs of infection; format: functional; conditions: route subcutaneous
[2] = test system: Mycobacterium tuberculosis; test: Antibacterial activity against Mycobacterium tuberculosis H37Rv assessed as growth inhibition; format: functional
Plasmodium gallinaceum [3] = test: Antimalarial activity against sporozoite-induced Plasmodium gallinaceum infected in chick assessed as change in cured at 60 mg/kg, sc single dose; format: functional; conditions: route subcutaneous
Shigella sonnei = test: Antibacterial activity against Shigella sonnei C-10 assessed as growth inhibition; format: functional
Plasmodium berghei [4] = test: Antimalarial activity against trophozoite-induced Plasmodium berghei infected in mouse assessed as change in mean survival time at 10 mg/kg, sc single dose after 72 hrs of infection; format: functional; conditions: route subcutaneous
Plasmodium berghei [5] = test: Antimalarial activity against trophozoite-induced Plasmodium berghei infected in mouse assessed as change in mean survival time at 5 mg/kg, sc single dose after 72 hrs of infection; format: functional; conditions: route subcutaneous
Plasmodium gallinaceum [6] = test: Antimalarial activity against sporozoite-induced Plasmodium gallinaceum infected in chick assessed as change in cured at 30 mg/kg, sc single dose; format: functional; conditions: route subcutaneous
Plasmodium berghei [7] = test: Antimalarial activity against trophozoite-induced Plasmodium berghei infected in mouse assessed as change in mean survival time at 2.5 mg/kg, sc single dose after 72 hrs of infection; format: functional; conditions: route subcutaneous
Staphylococcus aureus [8] = test: Antibacterial activity against Staphylococcus aureus UC-76 assessed as growth inhibition; format: functional
Pseudomonas aeruginosa = test: Antibacterial activity against Pseudomonas aeruginosa 28 assessed as growth inhibition; format: functional
Enterococcus faecalis = test: Antibacterial activity against Streptococcus faecalis MGH-2 assessed as growth inhibition; format: functional
Plasmodium berghei [9] = test: Antimalarial activity against trophozoite-induced Plasmodium berghei infected in mouse assessed as change in mean survival time at 1.25 mg/kg, sc single dose after 72 hrs of infection; format: functional; conditions: route subcutaneous
Plasmodium gallinaceum [10] = test: Antimalarial activity against sporozoite-induced Plasmodium gallinaceum infected in chick assessed as change in cured at 120 mg/kg, sc single dose; format: functional; conditions: route subcutaneous
Plasmodium berghei [11] = test: Antimalarial activity against trophozoite-induced Plasmodium berghei infected in sc dosed mouse assessed as minimum curative dose; format: functional
Escherichia coli = test: Antibacterial activity against Escherichia coli Vogel assessed as growth inhibition; format: functional
Plasmodium gallinaceum [12] = test: Antimalarial activity against sporozoite-induced Plasmodium gallinaceum infected in chick assessed as change in cured at 240 mg/kg, sc single dose; format: functional; conditions: route subcutaneous
Plasmodium berghei [13] = test: Antimalarial activity against trophozoite-induced Plasmodium berghei infected in mouse assessed as change in mean survival time at 40 mg/kg, sc single dose after 72 hrs of infection; format: functional; conditions: route subcutaneous
Staphylococcus aureus [14] = test: Antibacterial activity against Staphylococcus aureus S18713 assessed as growth inhibition; format: functional
Plasmodium gallinaceum [15] = test: Antimalarial activity against sporozoite-induced Plasmodium gallinaceum infected in chick assessed as change in cured at 15 mg/kg, sc single dose; format: functional; conditions: route subcutaneous
Plasmodium berghei [16] = test: Antimalarial activity against trophozoite-induced Plasmodium berghei infected in mouse assessed as change in mean survival time at 80 mg/kg, sc single dose after 72 hrs of infection; format: functional; conditions: route subcutaneous
Gallus gallus = test: Toxicity in trophozoite-induced Plasmodium gallinaceum infected in chick assessed as death at 30 mg/kg, sc single dose measured within 48 hrs; format: organism-based; design: dose 30 mg/kg, route subcutaneous; conditions: chicken, in vivo
Plasmodium gallinaceum [17] = test: Antimalarial activity against trophozoite-induced Plasmodium gallinaceum infected in chick assessed as mean survival time at 120 mg/kg, sc single dose (reference value: 3.6 days); format: functional; conditions: route subcutaneous
Plasmodium gallinaceum [18] = test: Antimalarial activity against trophozoite-induced Plasmodium gallinaceum infected in chick assessed as mean survival time at 30 mg/kg, sc single dose (reference value: 3.6 days); format: functional; conditions: route subcutaneous
Plasmodium gallinaceum [19] = test: Antimalarial activity against trophozoite-induced Plasmodium gallinaceum infected in chick assessed as mean survival time at 60 mg/kg, sc single dose (reference value: 3.6 days); format: functional; conditions: route subcutaneous
Plasmodium falciparum [20] = test: Antimalarial activity against Plasmodium falciparum Vietnam Oak Knoll in po once daily dosed Owl monkey assessed as curative dose compound treated for 7 days; format: functional
[21] = Toxicity in chloroquine-sensitive, pyrimethamine-resistant Plasmodium falciparum Malayan Camp CH/Q infected in Aotus monkey compound treated for 7 days; conditions: in vivo
Plasmodium vivax = test: Antimalarial activity against Plasmodium vivax New Guinea Chesson in po once daily dosed Owl monkey assessed as curative dose compound treated for 7 days; format: functional
Plasmodium falciparum [22] = test: Antimalarial activity against chloroquine-resistant, pyrimethamine-sensitive Plasmodium falciparum Vietnam Oak Knoll in Aotus monkey assessed as dose required to >50% cures compound treated for 7 days; format: functional

Compound | MST (Plasmodium berghei [1]) [days] | MST (Plasmodium gallinaceum [3]) [days] | MST (Plasmodium berghei [4]) [days] | MST (Plasmodium berghei [5]) [days] | MST (Plasmodium gallinaceum [6]) [days] | MST (Plasmodium berghei [7]) [days] | MST (Plasmodium berghei [9]) [days] | MST (Plasmodium berghei [13]) [days] | MST (Plasmodium gallinaceum [15]) [days] | also measured
Nc1nc(N)c2cc(S(=O)(=O)c3cc(Cl)cc(Cl)c3)ccc2n1 | 9.7 | 7 | 6.9 | 5.9 | 6.3 | 0.7 | 0.3 | 11.3 | 2.2 | MIC [2]: > 25 µg/mL; MIC (Shigella sonnei): > 25 µg/mL; MIC (Staphylococcus aureus [8]): 2.5 µg/mL (≈ 6.77 µM); MIC (Pseudomonas aeruginosa): > 25 µg/mL; MIC (Enterococcus faecalis): 1 µg/mL (≈ 2.71 µM); MST (Plasmodium gallinaceum [10]): 7 days; MCD (Plasmodium berghei [11]): 160 mg/kg; MIC (Escherichia coli): > 25 µg/mL; MST (Plasmodium gallinaceum [12]): 7 days; MIC (Staphylococcus aureus [14]): 10 µg/mL (≈ 27.1 µM)
CC1(C)N=C(N)N=C(N)N1c1ccc(Cl)cc1.Cl [CHLORCYCLOGUANIL HYDROCHLORIDE] | 7.9 | 0.4 | 4.9 | – | 2.3 | – | – | 13.4 | 0 | MST (Plasmodium berghei [16]): 21.6 days; Activity (Gallus gallus): Toxic; MST (Plasmodium gallinaceum [17]): 22.7 days; MST (Plasmodium gallinaceum [18]): 15.3 days; MST (Plasmodium gallinaceum [19]): 18.7 days
CCc1nc(N)nc(N)c1-c1ccc(Cl)cc1 [PYRIMETHAMINE] | 7.7 | – | 6.1 | 5.3 | – | 4.7 | 3.1 | – | – | CD90 (Plasmodium falciparum [20]): 0.15 mg/kg; MTD at 168 h [21]: > 2.5 mg/kg; CD90 (Plasmodium vivax): 0.625 mg/kg; Activity (Plasmodium falciparum [22]): 0.6 mg/kg
